Laboratory results taken from publication PMC12006171, “Marsupial cathelicidins: characterization, antimicrobial activity and evolution in this unique mammalian lineage” (Frontiers in Immunology, 2025).
In brackets after ≈: the same amount, converted by molar mass. Like-named read-outs stand apart in the source and are kept apart here. Where a SMILES comes first, the peptide text is derived from it.

Tests used:
Format in all cases: cell-based
Candida krusei ATCC 6258 = test: microbe, parasite or virus in culture; settings: ATCC 6258
Summary of the method: (§1)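 Endpoint is visible-growth inhibition (MIC) after 35°C, 20–24 h incubation. Yeast medium was RPMI-1640 MOPS; bacterial medium was Mueller Hinton broth, with or without divalent cations and lysed horse blood. Final peptide range 64-0.125μg/mL.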

[1] = test system: Streptococcus pneumoniae ATCC 49619; test: microbe, parasite or virus in culture; settings: ATCC 49619; read-out: MIC S. pneumoniae ATCC
Summary of the method: as §1

[2] = test system: Streptococcus agalactiae Clinical isolate - animal; test: microbe, parasite or virus in culture; settings: clinical isolate - animal
Summary of the method: as §1

[3] = test system: Candida parapsilosis ATCC 22019; test: microbe, parasite or virus in culture; settings: ATCC 22019
Summary of the method: as §1

[4] = test system: Streptococcus agalactiae ATCC 12386; test: microbe, parasite or virus in culture; settings: ATCC 12386; read-out: MIC S. agalactiae ATCC
Summary of the method: as §1

[5] = test system: Candida albicans Clinical isolate - human; test: microbe, parasite or virus in culture; settings: Clinical isolate - human
Summary of the method: as §1

[6] = test system: Pseudomonas aeruginosa clinical isolate - animal; test: microbe, parasite or virus in culture; settings: clinical isolate - animal
Summary of the method: (§2)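 Each isolate was exposed to twofold peptide dilutions (final 64-0.125μg/mL) in Mueller Hinton broth, optionally supplemented with calcium and magnesium or 10% lysed horse blood. The MIC was taken as the lowest concentration lacking visible growth after 20–24 hours at 35°C.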

[7] = test system: Escherichia coli ATCC 25922; test: microbe, parasite or virus in culture; settings: ATCC 25922
Summary of the method: as §2

[8] = test system: Pseudomonas aeruginosa ATCC 27853; test: microbe, parasite or virus in culture; settings: ATCC 27853; read-out: MIC P. aeruginosa ATCC
Summary of the method: as §2

[9] = test system: Staphylococcus aureus ATCC 29213; test: microbe, parasite or virus in culture; settings: ATCC 29213
Summary of the method: as §2

[10] = test system: Staphylococcus aureus clinical isolate - animal; test: microbe, parasite or virus in culture; settings: clinical isolate - animal
Summary of the method: as §2

[11] = test system: Escherichia coli clinical isolate - animal; test: microbe, parasite or virus in culture; settings: clinical isolate - animal
Summary of the method: as §2

[12] = test system: Staphylococcus aureus clinical isolate – animal, methicillin-resistant (MRSA); settings: clinical isolate – animal, methicillin-resistant
Summary of the method: as §1

[13] = test system: Staphylococcus aureus clinical isolate – animal, penicillin-resistant (PRSA); settings: clinical isolate – animal, penicillin-resistant (PRSA)
Summary of the method: as §1

[14] = test system: six bacteria (S. aureus, E. coli, P. aeruginosa; ATCC and clinical isolate); settings: for Antibacterial (MIC <64ug/mL): synthesized mature peptide
Summary of the method: as §2

[15] = test system: three fungi (Candida krusei, Candida parapsilosis, Candida albicans); test: Antifungal screening, summary over the panel of fungi (broth microdilution)
Protocol: Antimicrobial testing of 78 cathelicidin MPs was performed in two phases as outlined in Figure 1 . In phase I, 40 peptides (27 extant and 13 ancestral) were selected for testing based on rank (outlined above) and similarity to published marsupial cathelicidins with known antimicrobial activity ([33], [41]–[43]). These peptides were tested against nine bacteria (Staphylococcus aureus ATCC 29213 and clinical isolate, Escherichia coli ATCC 25922 and clinical isolate, Pseudomonas aeruginosa ATCC 27853 and clinical isolate, Streptococcus agalactiae ATCC 12386 and clinical isolate, Streptococcus pneumoniae ATCC 49619) and three fungi (Candida krusei ATCC 6258, Candida parapsilosis ATCC 22019, and Candida albicans clinical isolate). Details regarding these strains are available in Supplementary Table 4 . The antimicrobial activity of cathelicidins was determined as the minimum inhibitory concentration (MIC), which was the lowest concentration of cathelicidin that prevented visible bacterial or fungal growth, relative to the negative control. […] Minimum bactericidal concentration (MBC) and/or minimum fungicidal concentration (MFC) was conducted to determine microbicidal versus static action. Activity against S. aureus ATCC, E. coli ATCC, and Pseudomonas aeruginosa ATCC 27853 was examined in the presence of divalent cations to determine the impact of inhibitors.
Antimicrobial activity was determined using a broth microdilution susceptibility assay in 96 well polypropylene plates according to Clinical Laboratory Standards Institute guidelines M07-A and M26A as described previously ([33], [42], [43]). The bacterial and fungal isolates from humans and animals used in this study are outlined in Supplementary Table 4 . Only yeasts were included in the panel of fungi as they have been used in the susceptibility testing of eutherian ([3], [81]–[83]) and other marsupial cathelicidins previously ([33], [42], [43]). Cathelicidin mature peptides were solubilized in DMSO and serially diluted in duplicate from 128-0.25μg/mL in a final volume of 100µL. For bacteria, cathelicidins were diluted in Mueller Hinton Broth (MHB) with or without 10% lysed horse blood, and with (MH II B) or without (MHB) calcium and magnesium cations. For fungi, cathelicidins were diluted in Roswell Park Memorial Institute medium (RPMI)-1640 MOPS. Ampicillin or tetracycline were included as a positive control for Gram-positive and -negative bacteria respectively, while amphotericin B was used for fungi. A media-only negative control and growth control (no cathelicidin) were also included on each plate. Bacteria were sub-cultured on Muller Hinton agar (MHA) or sheep blood agar (BA), and fungi on Sabouraud dextrose agar (SAB), 20–24 hours prior to the test. Colonies were suspended in saline, the concentration adjusted to a 0.5 McFarland standard, and then diluted in media to a concentration of 1.0 x 10^6 cells/mL. Then, 100μL was added to each well of the cathelicidin dilution plate, giving a final inoculum density of 5 x 10^5 CFU/mL and cathelicidin concentration of 64-0.125μg/mL. Colony counts were performed on MHA/BA/SAB to confirm inoculum density. All plates were incubated at 35°C for 20–24 hours, depending on the strain.
Colonies were counted and compared to the colony count of the starting inoculum.

[16] = read-out: MIC in the presence of cations E. coli ATCC
[17] = broth microdilution screening, phase I or II, Y/N summary over the bacteria tested
[18] = broth microdilution screening, phase I, Y/N summary over the fungi tested, synthesized mature peptide

CC[C@H](C)[C@H](NC(=O)[C@H](CCCNC(=N)N)NC(=O)[C@@H](NC(=O)[C@H](CCCNC(=N)N)NC(=O)[C@@H](N)CCCCN)[C@@H](C)CC)C(=O)N[C@@H](CC(C)C)C(=O)NCC(=O)N[C@@H](CCCNC(=N)N)C(=O)N[C@@H](CC(C)C)C(=O)N[C@@H](Cc1c[nH]c2ccccc12)C(=O)N[C@@H](CC(=O)O)C(=O)NCC(=O)N[C@@H](CC(C)C)C(=O)N[C@@H](CCCNC(=N)N)C(=O)N[C@@H](CC(N)=O)C(=O)N[C@@H](CC(C)C)C(=O)NCC(=O)N[C@@H](CC(N)=O)C(=O)N[C@@H](CCCNC(=N)N)C(=O)N[C@H](C(=O)N[C@@H](CCCNC(=N)N)C(=O)N[C@@H](CC(N)=O)C(=O)N[C@@H](CCCNC(=N)N)C(=O)N[C@H](C(=O)N[C@@H](CCCNC(=N)N)C(=O)N[C@@H](CC(=O)O)C(=O)N[C@@H](Cc1ccccc1)C(=O)N[C@@H](Cc1ccccc1)C(=O)N[C@@H](CO)C(=O)O)[C@@H](C)CC)[C@@H](C)CC [MyfaCath5] (H-KRIRILGRLWDGLRNLGNRIRNRIRDFFS-OH)
MFC C. krusei ATCC (Candida krusei ATCC 6258): 4.4 µM (≈ 15.9 µg/mL) | MIC C. krusei ATCC (Candida krusei ATCC 6258): 4.4 µM (≈ 15.9 µg/mL) | MIC [1]: >17.7 µM | MIC ([2]; read-out: MIC S. agalactiae): >17.7 µM | MFC C. parapsilosis ATCC [3]: 17.7 µM (≈ 63.9 µg/mL) | MIC C. parapsilosis ATCC [3]: 17.7 µM (≈ 63.9 µg/mL) | MIC [4]: >17.7 µM | MIC ([5]; read-out: MIC C. albicans): >17.7 µM | MIC ([6]; read-out: MIC P. aeruginosa): >17.7 µM | MBC E. coli ATCC [7]: 17.7 µM (≈ 63.9 µg/mL) | MIC ([7]; read-out: MIC E. coli ATCC): 8.8 µM (≈ 31.8 µg/mL) | MIC [7, 16]: 8.8 µM | MIC [8]: >17.7 µM | MBC S. aureus ATCC [9]: 17.7 µM (≈ 63.9 µg/mL) | MIC ([9]; read-out: MIC S. aureus ATCC): 8.8 µM (≈ 31.8 µg/mL) | MIC ([9]; read-out: MIC in the presence of cations S. aureus ATCC): 4.4 µM | MBC S. aureus [10]: 8.8 µM (≈ 31.8 µg/mL) | MIC ([10]; read-out: MIC S. aureus): 4.4 µM (≈ 15.9 µg/mL) | MIC ([10]; read-out: MIC in the presence of cations S. aureus): 4.4 µM | MBC E. coli [11]: 8.8 (8.8)^8.8 µM | MIC E. coli [11]: 8.8 (8.8)^8.8 µM | MIC in the presence of cations E. coli [11]: 8.8 (8.8)^8.8 µM | MBC MRSA [12]: 8.8 µM (≈ 31.8 µg/mL) | MIC MRSA [12]: 8.8 µM (≈ 31.8 µg/mL) | MBC PRSA [13]: 2.2 µM (≈ 7.95 µg/mL) | MIC PRSA [13]: 2.2 µM (≈ 7.95 µg/mL)

CC[C@H](C)[C@H](NC(=O)[C@H](CCCNC(=N)N)NC(=O)[C@H](CC(=O)O)NC(=O)[C@H](Cc1c[nH]c2ccccc12)NC(=O)[C@@H](NC(=O)[C@H](CCCNC(=N)N)NC(=O)[C@H](CCCNC(=N)N)NC(=O)[C@@H](NC(=O)[C@H](CC(C)C)NC(=O)[C@H](CCCNC(=N)N)NC(=O)CNC(=O)[C@H](CC(C)C)NC(=O)[C@H](CCCNC(=N)N)NC(=O)CNC(=O)[C@H](CCCNC(=N)N)NC(=O)[C@@H](N)CCCCN)[C@@H](C)CC)[C@@H](C)CC)C(=O)N[C@@H](CCCNC(=N)N)C(=O)NCC(=O)NCC(=O)O [MyfaCath7] (H-KRGRLGRLIRRIWDRIRGG-OH)
MFC C. krusei ATCC (Candida krusei ATCC 6258): 6.8 µM (≈ 15.9 µg/mL) | MIC C. krusei ATCC (Candida krusei ATCC 6258): 6.8 µM (≈ 15.9 µg/mL) | MIC [1]: >27.4 µM | MBC S. agalactiae [2]: 13.7 µM (≈ 32 µg/mL) | MIC S. agalactiae [2]: 13.7 µM (≈ 32 µg/mL) | MFC C. parapsilosis ATCC [3]: 13.7 µM (≈ 32 µg/mL) | MIC C. parapsilosis ATCC [3]: 13.7 µM (≈ 32 µg/mL) | MIC [4]: >27.4 µM | MFC C. albicans [5]: 27.4 µM (≈ 64 µg/mL) | MIC C. albicans [5]: 27.4 µM (≈ 64 µg/mL) | MIC against at least one strain [14]: 4 µg/mL (≈ 1.71 µM) | MBC P. aeruginosa [6]: > 27.4 µM | MIC ([6]; read-out: MIC P. aeruginosa): 13.7 µM (≈ 32 µg/mL) | MIC ([6]; read-out: MIC in the presence of cations P. aeruginosa): 27.4 µM | MBC E. coli ATCC [7]: 1.7 µM (≈ 3.97 µg/mL) | MIC ([7]; read-out: MIC E. coli ATCC): 1.7 µM (≈ 3.97 µg/mL) | MIC [7, 16]: 3.4 µM | MIC [8]: >27.4 µM | MBC S. aureus ATCC [9]: 3.4 (3.4)^3.4 µM | MIC S. aureus ATCC [9]: 3.4 (3.4)^3.4 µM | MIC in the presence of cations S. aureus ATCC [9]: 3.4 (3.4)^3.4 µM | MBC S. aureus [10]: 3.4 (3.4)^3.4 µM | MIC S. aureus [10]: 3.4 (3.4)^3.4 µM | MIC in the presence of cations S. aureus [10]: 3.4 (3.4)^3.4 µM | MBC E. coli [11]: 1.7 (1.7)^1.7 µM | MIC E. coli [11]: 1.7 (1.7)^1.7 µM | MIC in the presence of cations E. coli [11]: 1.7 (1.7)^1.7 µM | MBC MRSA [12]: 3.4 µM (≈ 7.94 µg/mL) | MIC MRSA [12]: 3.4 µM (≈ 7.94 µg/mL) | MBC PRSA [13]: 1.7 µM (≈ 3.97 µg/mL) | MIC PRSA [13]: 1.7 µM (≈ 3.97 µg/mL)

KRFGFRWFIRTLLRFRGEKVKTRFIFAIEKLIDT [MAP12, marsupial ancestral peptide, predicted by ANCESCON and GASP, synthesized]
Antibacterial (MIC <64ug/mL) ([14]; antimicrobial screening Phase I, Y/N summary over bacteria tested, broth microdilution): N (Antibacterial (MIC <64ug/mL)) | Antifungal (MIC <64ug/mL) ([15]; synthesized mature peptide, antimicrobial screening Phase I, Y/N summary over fungi tested, broth microdilution): N (Antifungal (MIC <64ug/mL))

KRGLWESLKRKATKLGDDIRNTLRNFKIKVPVPRQWPIRV [MaruCath4p]
Antibacterial (MIC <64ug/mL) [14, 17]: Y (Antibacterial (MIC <64ug/mL)) | Antifungal (MIC <64ug/mL) [15, 18]: N (Antifungal (MIC <64ug/mL))

KVKRGLWEDLKRKATKFGDDIRNTLRNVKIKFPVPHLG [MagiCath9]
Antibacterial (MIC <64ug/mL) [14, 17]: N (Antibacterial (MIC <64ug/mL)) | Antifungal (MIC <64ug/mL) [15, 18]: N (Antifungal (MIC <64ug/mL))

PELLRSRRSPLPRRKKGSKKNSYKTGGYSVIALGKSNVHKAPYMEAL [TrvuCath1]
Antibacterial (MIC <64ug/mL) [14, 17]: N (Antibacterial (MIC <64ug/mL)) | Antifungal (MIC <64ug/mL) [15, 18]: N (Antifungal (MIC <64ug/mL))

SRGLRKKLKKLGKSIKKRLKNIKIGYSIPFPG [PspeCath1p]
Antifungal (MIC <64ug/mL) ([15]; Y/N summary over the fungi screened, broth microdilution, NT = not tested): Y (Antifungal (MIC <64ug/mL))
